Data reported in patent US20060024239A1, “Persistent post-viral cough drug and treatment method” (priority 2004, published 2006).

Tested on: persistent post-viral cough
Experiment: Treatment of patients with persistent post-viral cough (case reports and the inventors' clinical experience)
Format: in vivo, human
Source text: As opposed to what is found in the medical literature, in the usual patient that we have observed and treated for sub-acute or chronic cough after viral respiratory infection, evidence for post-nasal drip, sinusitis, asthma, or gastroesophageal reflux has been lacking. Physical examination of the nose, throat, sinuses, and chest has been unremarkable as have chest x-ray, and simple pulmonary function tests. Antihistamines and decongestants as might be used for post-nasal drip have proven disappointing and have rarely afforded relief of the persistent cough when tried. Antibiotic treatments likewise have been effective to alleviate cough only in rare instances. […] We have been surprised by the regularity with which this treatment has proven effective.
Because the respiratory tract is a continuous conduit, topical medications can be applied to the airways surface in aerosol form. The term “aerosol” as used herein is as conventionally defined to indicate either a liquid or solid particle suspended in gas. Many chemical entities in aerosol delivery devices, both liquid and solid, have been developed and marketed for treating respiratory disorders. These include aerosol medications for application to the nose or for inhalation through the mouth. We have utilized a variety of inhaled topical corticosteroid aerosols to treat persistent post-viral cough and have found them all to be generally effective. The following are two examples of aerosols and regimens that we have found effective: • Beclovent Inhalation Aerosol (beclomethasone diprroprionate, USP): two to three sprays t.i.d. for six days. • Pulmicort Turbuhaler® 200 mcg (budesonide powder): one spray t.i.d. for six days.
The inventors have improvised treatment for protracted post-viral cough in our patients by utilizing commercially available multi-dose corticosteroid aerosol inhalers that are not indicated for that purpose. These typically provide enough chemical agent for a 29-30 day period. They are neither labeled for short-term use or for treatment of post-viral cough. While we have not encountered medicinal side effects in our treated patients, a general principal of pharmacologic treatment is to avoid overuse of medication. The desirability to minimize treatment and minimize the use of corticosteroids in particular is well recognized. On occasion, the inventors have utilized smaller size inhaler samples with fewer dosing actuations that have been available through the courtesy of pharmaceutical representatives. Although less consistently available, the devices with lesser number of actuations are considered preferable to prevent inadvertent or purposeful overuse of medication. An aerosol device containing a corticosteroid agent for treatment of about two weeks or less is preferred, and about 7 days is most preferred. It is to be noted that, lacking labeling, no inhaled corticosteroid aerosol used experimentally by the inventors comprises a “drug” to treat the persistent post-viral cough patients as herein described.
The following case reports further exemplify the present invention: • 1. A person with no previous respiratory history had initial symptoms consisting of nasal congestion, rhinorrhea, post-nasal drip, and dry cough. All symptoms but cough resolved within two week and dry cough persisted for 28 days from onset.
We have likewise found prompt response to a short course treatment of inhaled corticosteroid in these individuals, for example: […]

SMILES | subsequent resolution of cough (case 1: 2 sprays (40 mcg@) tid for six days, after one week) | recurrence of cough (case 1: 2 sprays (40 mcg@) tid for six days, no further medication required) | improvement of cough at one week (case 1: dry cough for 28 days, 2 sprays (40 mcg@) tid for six days, slight residual in AM) | recurrence of cough (case 2: 2 sprays (40 mcg@) tid for five days) | resolution of cough (case 2: cough for 25 days, 2 sprays (40 mcg@) tid for five days) | recurrence of cough (case 3: 2 sprays (40 mcg@) tid for five days) | resolution of cough (case 3: severe dry cough for 22 days, 2 sprays (40 mcg@) tid for five days) | recurrence of cough (case 4: 2 sprays (40 mcg@) tid for ten days) | resolution of cough (case 4: severe dry cough for 6 weeks, 2 sprays (40 mcg@) tid for ten days) | resolution of symptoms (case 2: five-day course, 500 mg per day, initial cold symptoms with productive cough) | improvement of cough (case 4: 500 mg per day for five days)
C[C@H]1C[C@H]2[C@@H]3CCC4=CC(=O)C=C[C@]4(C)[C@@]3(Cl)[C@@H](O)C[C@]2(C)[C@@]1(O)C(=O)CO [Beclomethasone MDI, Beclomethasone] | complete resolution | did not reoccur | significant improvement of cough | no recurrence of cough | complete resolution of cough | no recurrence | complete resolution of cough | did not reoccur | complete resolution of cough | – | –
CC[C@H]1OC(=O)[C@H](C)[C@@H](O[C@H]2C[C@@](C)(OC)[C@@H](O)[C@H](C)O2)[C@H](C)[C@@H](O[C@@H]2O[C@H](C)C[C@H](N(C)C)[C@H]2O)[C@](C)(O)C[C@@H](C)CN(C)[C@H](C)[C@@H](O)[C@]1(C)O [azithromycin] | – | – | – | – | – | – | – | – | – | all symptoms resolved with the exception of a non-productive “tickling” cough | without improvement of the cough
